In patent publication US20250129078A1, “ERBB2 INHIBITORS” (Cogent Biosciences, Inc., priority 2023, published 2025):
Counter-ions that a name gives are not always drawn.

Target: EGFR WT (Homo sapiens (Human), UniProt P00533)
Assay: ErbB enzyme assay (CisBio HTRF-KinEASE-TK), EGFR WT
Format: biochemical
Details: ATP at Km (25 μM), 1 h incubation
Experimental: In vitro enzyme assays based on CisBio HTRF-KinEASE-TK technology were used to determine compound potencies. […]. Compounds were prepared as a three-fold serial dilution in DMSO and added to the assay to give the appropriate final concentration. After a 1 h incubation at ambient temperature, the reaction was quenched by adding 10 μL of 62.5 nM Sa-XL665 and 0.25×TK-Ab-Cryptate in HTRF detection buffer (all from CisBio, part of cat #62TKOPEC). After another 1 h incubation at ambient temperature, the extent of substrate phosphorylation was determined using a PerkinElmer EnVision multimode plate reader via time-resolved fluorescence dual wavelength detection. The percent of control (POC) was calculated using the ratio of emission at […] to the emission at 620 nm. One hundred POC was determined using DMSO only controls (no test compounds present) and zero POC was determined using pre-quenched controls reactions. A 4-parameter logistic equation was fit to the POC values as a function of the test compound concentration and the IC50 value was determined as the point where the curve crossed 50 POC.

Chain of EGFR WT (P00533 25-1210): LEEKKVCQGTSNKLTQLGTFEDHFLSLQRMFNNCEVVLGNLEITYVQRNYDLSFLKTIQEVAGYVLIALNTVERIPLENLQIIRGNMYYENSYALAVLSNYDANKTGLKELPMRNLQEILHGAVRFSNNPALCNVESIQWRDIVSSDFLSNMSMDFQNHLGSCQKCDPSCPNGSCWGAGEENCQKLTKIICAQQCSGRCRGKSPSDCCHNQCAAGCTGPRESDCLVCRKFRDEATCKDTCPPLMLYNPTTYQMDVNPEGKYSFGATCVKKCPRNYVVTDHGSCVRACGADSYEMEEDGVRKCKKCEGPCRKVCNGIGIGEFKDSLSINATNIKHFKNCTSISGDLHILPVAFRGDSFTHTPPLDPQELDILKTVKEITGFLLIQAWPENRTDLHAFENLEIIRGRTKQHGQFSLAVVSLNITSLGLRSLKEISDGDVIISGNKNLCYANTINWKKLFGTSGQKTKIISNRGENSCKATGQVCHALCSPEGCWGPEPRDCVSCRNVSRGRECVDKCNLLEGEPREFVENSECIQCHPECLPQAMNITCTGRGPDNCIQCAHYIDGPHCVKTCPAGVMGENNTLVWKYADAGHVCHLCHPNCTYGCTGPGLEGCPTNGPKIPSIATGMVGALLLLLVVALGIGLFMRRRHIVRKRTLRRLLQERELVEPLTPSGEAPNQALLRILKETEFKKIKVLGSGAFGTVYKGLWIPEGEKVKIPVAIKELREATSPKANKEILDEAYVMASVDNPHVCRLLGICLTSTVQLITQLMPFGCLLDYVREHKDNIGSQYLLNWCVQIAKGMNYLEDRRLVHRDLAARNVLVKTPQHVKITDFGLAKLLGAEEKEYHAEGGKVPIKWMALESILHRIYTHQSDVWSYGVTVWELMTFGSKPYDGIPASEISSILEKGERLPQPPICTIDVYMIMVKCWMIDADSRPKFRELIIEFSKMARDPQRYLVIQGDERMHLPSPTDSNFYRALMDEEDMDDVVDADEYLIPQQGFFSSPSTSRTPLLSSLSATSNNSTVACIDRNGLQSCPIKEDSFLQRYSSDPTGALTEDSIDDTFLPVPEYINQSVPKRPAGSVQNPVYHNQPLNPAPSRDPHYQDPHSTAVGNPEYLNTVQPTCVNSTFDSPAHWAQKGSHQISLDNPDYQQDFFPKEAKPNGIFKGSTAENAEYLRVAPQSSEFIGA

IC50 | Compound
100 to 500 nM | C=CC(=O)N[C@H]1CN(c2ccc3ncnc(Nc4ccc(Oc5ccc6c(c5)nnn6C)c(C)c4F)c3n2)CC[C@@H]1C [Compound 350, N-((3R,4S)-1-(4-((2-fluoro-3-methyl-4-((1-methyl-1H-benzo[d][1,2,3]triazol-5-yl)oxy)phenyl)amino)pyrido[3,2-d]pyrimidin-6-yl)-4-methylpiperidin-3-yl)acrylamide]
≥ 1000 nM | C=CC(=O)N1C[C@@H](N(C)c2ccc3ncnc(Nc4ccc(Oc5ccc6c(c5)nnn6C)c(C)c4F)c3n2)CC[C@@H]1C [Compound 267, 1-((2S,5S)-5-((4-((2-fluoro-3-methyl-4-((1-methyl-1H-benzo[d][1,2,3]triazol-5-yl)oxy)phenyl)amino)pyrido[3,2-d]pyrimidin-6-yl)(methyl)amino)-2-methylpiperidin-1-yl)prop-2-en-1-one]
< 50 nM | C=CC(=O)N1CC[C@H](N(C)c2ncc3ncnc(Nc4ccc(Oc5ccc6c(c5)nnn6C)c(C)c4)c3n2)C1 [Compound 131, (S)-1-(3-(methyl(8-((3-methyl-4-((1-methyl-1H-benzo[d][1,2,3]triazol-5-yl)oxy)phenyl)amino)pyrimido[5,4-d]pyrimidin-2-yl)amino)pyrrolidin-1-yl)prop-2-en-1-one]
< 50 nM | C=CC(=O)N1CCN(c2ncc3ncnc(Nc4ccc(Oc5cc(F)c6c(c5)ncn6C)c(C)c4F)c3n2)CC[C@@H]1C [Compound 181, (S)-1-(4-(8-((2-fluoro-4-((7-fluoro-1-methyl-1H-benzo[d]imidazol-5-yl)oxy)-3-methylphenyl)amino)pyrimido[5,4-d]pyrimidin-2-y1)-7-methyl-1,4-diazepan-1-yl)prop-2-en-1-one]
500 to 1000 nM | C=CC(=O)N1CCN(c2ncc3ncnc(Nc4ccc(Oc5ccn6ncnc6c5)c(C)c4)c3c2F)CC1 [Compound 100, 1-(4-(4-((4-([1,2,4]triazolo[1,5-a]pyridin-7-yloxy)-3-methylphenyl)amino)-5-fluoropyrido[3,4-d]pyrimidin-6-yl)piperazin-1-yl)prop-2-en-1-one]
< 50 nM | C=CC(=O)N1CCC=C(c2ccc3ncnc(Nc4ccc(Oc5ccc6c(c5)nnn6C)c(C)c4)c3n2)C1 [Compound 407, 1-(5-(4-((3-methyl-4-((1-methyl-1H-benzo[d][1,2,3]triazol-5-yl)oxy)phenyl)amino)pyrido[3,2-d]pyrimidin-6-yl)-3,6-dihydropyridin-1(2H)-yl)prop-2-en-1-one]
< 50 nM | C=CC(=O)N1CCC(Oc2ncc3ncnc(Nc4ccc(Oc5cc(F)c6c(c5)nnn6C)c(C)c4)c3n2)CC1 [Compound 106, 1-(4-((8-((4-((7-fluoro-1-methyl-1H-benzo[d][1,2,3]triazol-5-yl)oxy)-3-methylphenyl)amino)pyrimido[5,4-d]pyrimidin-2-yl)oxy)piperidin-1-yl)prop-2-en-1-one]
< 50 nM | C=CC(=O)N1CCN(c2ccc3ncnc(Nc4ccc(Oc5ccc6c(c5)nnn6C)c(C)c4)c3n2)CC1CF (stereo not drawn) [Compound 313, 1-(2-(fluoromethyl)-4-(4-((3-methyl-4-((1-methyl-1H-benzo[d][1,2,3]triazol-5-yl)oxy)phenyl)amino)pyrido[3,2-d]pyrimidin-6-yl)piperazin-1-yl)prop-2-en-1-one]
< 50 nM | C=CC(=O)N1CCC(Oc2ncc3ncnc(Nc4ccc(Oc5ccc6c(c5)nnn6C)c(C)c4)c3n2)CC1 [Compound 390, 1-(4-((8-((3-methyl-4-((1-methyl-1H-benzo[d][1,2,3]triazol-5-yl)oxy)phenyl)amino)pyrimido[5,4-d]pyrimidin-2-yl)oxy)piperidin-1-yl)prop-2-en-1-one]
≥ 1000 nM | C=C(F)C(=O)N1CC2CCC1CN2c1ccc2ncnc(Nc3ccc(Oc4ccc5c(c4)nnn5C)c(C)c3)c2n1 (stereo not drawn) [Compound 88, 2-fluoro-1-(5-(4-((3-methyl-4-((1-methyl-1H-benzo[d][1,2,3]triazol-5-yl)oxy)phenyl)amino)pyrido[3,2-d]pyrimidin-6-yl)-2,5-diazabicyclo[2.2.2]octan-2-yl)prop-2-en-1-one]
50 to 100 nM | C=CC(=O)N1CCN(c2ccc3ncnc(Nc4ccc(Oc5cc(F)c6c(c5)nnn6C)c(C)c4)c3n2)C[C@H]1C [Compound 254, (R)-1-(4-(4-((4-((7-fluoro-1-methyl-1H-benzo[d][1,2,3]triazol-5-yl)oxy)-3-methylphenyl)amino)pyrido[3,2-d]pyrimidin-6-yl)-2-methylpiperazin-1-yl)prop-2-en-1-one]
≥ 1000 nM | C=C(F)C(=O)N1CCN(c2ncc3ncnc(Nc4ccc(Oc5ccc6c(c5)nnn6C)c(C)c4)c3n2)C[C@@H]1CF (single isomer, unassigned) [Compound 218]
≥ 1000 nM | C=C(COC)C(=O)N1C2CC1CN(c1ncc3ncnc(Nc4ccc(Oc5ccc6c(c5)nnn6C)c(C)c4)c3n1)C2 [Compound 213, 2-(methoxymethyl)-1-(3-(8-((3-methyl-4-((1-methyl-1H-benzo[d][1,2,3]triazol-5-yl)oxy)phenyl)amino)pyrimido [5,4-d]pyrimidin-2-yl)-3,6-diazabicyclo[3.1.1]heptan-6-yl)prop-2-en-1-one]
≥ 1000 nM | C=C(F)C(=O)N1CC2CCC1CN2c1ncc2ncnc(Nc3ccc(Oc4ccc5c(c4)nnn5C)c(C)c3)c2n1 (stereo not drawn) [Compound 50, 2-fluoro-1-(5-(8-((3-methyl-4-((1-methyl-1H-benzo[d][1,2,3]triazol-5-yl)oxy)phenyl)amino)pyrimido[5,4-d]pyrimidin-2-yl)-2,5-diazabicyclo[2.2.2]octan-2-yl)prop-2-en-1-one]
< 50 nM | C=CC(=O)N1CC[C@H](Oc2ncc3ncnc(Nc4ccc(Oc5cc(F)c6c(c5)ncn6C)c(C)c4)c3n2)C1 [Compound 389, (S)-1-(3-((8-((4-((7-fluoro-1-methyl-1H-benzo[d]imidazol-5-yl)oxy)-3-methylphenyl)amino)pyrimido[5,4-d]pyrimidin-2-yl)oxy)pyrrolidin-1-yl)prop-2-en-1-one]
50 to 100 nM | C=CC(=O)N(C)C1C2CN(c3ncc4ncnc(Nc5ccc(Oc6cc(F)c7c(c6)nnn7C)c(C)c5F)c4n3)CC21 (stereo not drawn) [Compound 68, N-(3-(8-((2-fluoro-4-((7-fluoro-1-methyl-1H-benzo[d][1,2,3]triazol-5-yl)oxy)-3-methylphenyl)amino)pyrimido[5,4-d]pyrimidin-2-yl)-3-azabicyclo[3.1.0]hexan-6-yl)-N-methylacrylamide]
< 50 nM | C=CC(=O)N1CCN(c2ncc3ncnc(Nc4ccc(Oc5cnc6c(c5)ncn6C)c(C)c4F)c3n2)CC1 [Compound 118, 1-(4-(8-((2-fluoro-3-methyl-4-((3-methyl-3H-imidazo[4,5-b]pyridin-6-yl)oxy)phenyl)amino)pyrimido [5,4-d]pyrimidin-2-y1)piperazin-1-yl)prop-2-en-1-one]
< 50 nM | C=CC(=O)N1CC2CCC(C1)N2c1ccc2ncnc(Nc3ccc(Oc4ccc5c(c4)nnn5C)c(C)c3)c2n1 [Compound 71, 1-(8-(4-((3-methyl-4-((1-methyl-1H-benzo[d][1,2,3]triazol-5-yl)oxy)phenyl)amino)pyrido[3,2-d]pyrimidin-6-yl)-3,8-diazabicyclo[3.2.1]octan-3-yl)prop-2-en-1-one]
≥ 1000 nM | C=C(F)C(=O)N1C2C=C(c3ccc4ncnc(Nc5ccc(Oc6ccc7c(c6)nnn7C)c(C)c5)c4n3)CC1CC2 (stereo not drawn) [Compound 411, 2-fluoro-1-(3-(4-((3-methyl-4-((1-methyl-1H-benzo[d][1,2,3]triazol-5-yl)oxy)phenyl)amino)pyrido[3,2-d]pyrimidin-6-yl)-8-azabicyclo[3.2.1]oct-2-en-8-yl)prop-2-en-1-one trifluoroacetate]
500 to 1000 nM | C=CC(=O)N[C@H]1CCCN(c2ncc3ncnc(Nc4ccc(Oc5ccc6c(c5)nnn6C)c(C)c4F)c3n2)CC1 [Compound 168, (S)-N-(1-(8-((2-fluoro-3-methyl-4-((1-methyl-1H-benzo[d][1,2,3]triazol-5-yl)oxy)phenyl)amino)pyrimido[5,4-d]pyrimidin-2-yl)azepan-4-yl)acrylamide]
< 50 nM | [2H]C1([2H])N(C(=O)C=C)C([2H])([2H])C([2H])([2H])N(c2ncc3ncnc(Nc4ccc(Oc5ccc6c(c5)nnn6C)c(C)c4)c3n2)C1([2H])[2H] [Compound 36, 1-(4-(8-((3-methyl-4-((1-methyl-1H-benzo[d][1,2,3]triazol-5-yl)oxy)phenyl)amino)pyrimido[5,4-d]pyrimidin-2-yl)piperazin-1-yl-2,2,3,3,5,5,6,6-d8)prop-2-en-1-one]
< 50 nM | C=CC(=O)N1CCN(c2ncc3ncnc(Nc4ccc(Oc5ccc6c(c5)nnn6C)c(C)c4F)c3n2)CC12CC2 [Compound 8, 1-(7-(8-((2-fluoro-3-methyl-4-((1-methyl-1H-benzo[d][1,2,3]triazol-5-yl)oxy)phenyl)amino)pyrimido [5,4-d]pyrimidin-2-yl)-4,7-diazaspiro[2.5]octan-4-yl)prop-2-en-1-one]
100 to 500 nM | C=CC(=O)N1CCN(c2ncc3ncnc(Nc4ccc(Oc5ccc6c(c5)nnn6C)c(C)c4)c3n2)C[C@H]1CO [Compound 24, (S)-1-(2-(hydroxymethyl)-4-(8-((3-methyl-4-((1-methyl-1H-benzo[d][1,2,3]triazol-5-yl)oxy)phenyl)amino)pyrimido[5,4-d]pyrimidin-2-yl)piperazin-1-yl)prop-2-en-1-one]
100 to 500 nM | C=CC(=O)N1CCN(c2ncc3ncnc(Nc4ccc(Oc5cc6nnn(C)c6cc5F)c(C)c4)c3n2)CC1 [Compound 190, 1-(4-(8-((4-((6-fluoro-1-methyl-1H-benzo[d][1,2,3]triazol-5-yl)oxy)-3-methylphenyl)amino)pyrimido[5,4-d]pyrimidin-2-yl)piperazin-1-yl)prop-2-en-1-one]
